This is an account of results in article PMC10368877, “Acid-sensing ion channel blocker diminazene facilitates proton-induced excitation of afferent nerves in a similar manner that Na^+/H^+ exchanger blockers do” (Frontiers in Cellular Neuroscience, 2023).

Molecules are shown by their SMILES.

The test system of this assay is T1, acid-sensing ion channels (native ASICs of mouse DRG neurons; subunit not identified).
T1 construct: native channels in primary cultured mouse DRG neurons
As to the kind of experiment: whole-cell patch clamp, ASIC currents evoked by pH drop […] to […] at -60 mV. Format: cell-based. (In patch-clamp work, channel activity is measured electrically.)

What is called IC50 is the concentration needed to halve the response being measured. Low values mean inhibition by little substance, high ones a need for much substance. As to `N=C(N)c1ccc(/N=N/Nc2ccc(C(=N)N)cc2)cc1` [diminazene], the IC50 was 16.9 ± 4.4 µM.
